Data: patent US8592438B2, “Plant disease control composition” (Sumitomo Chemical Intellectual Property Service, Ltd, priority 2008, dated 2013)

What was measured:
[1] = tested on: cucumber Gray mold fungus; experiment: Test Example 2: cucumber Gray mold control test, foliar spray on potted cucumber, disease spot diameter indices; type: in vivo; conditions: sum over 8 cucumber leaves, index 0 (spot 0 mm) to 5 (over 20 mm), 12° C. humid
Description: (§1) A plastic pot was stuffed with sand loam, and cucumber was sowed, and grown for 12 days in a greenhouse. A compound (Ia), compound (Ib), compound (III) and compound (IV) were prepared into flowable formulations according to the following preparation method, and the resultant flowable formulations were diluted with water, then, mixed to prepare a treatment solution containing the compound (Ia) and compound (III) of prescribed concentrations, a treatment solution containing the compound (Ib) and compound (III) of prescribed concentrations, a treatment solution containing the compound (Ia) and compound (IV) of prescribed concentrations, and a treatment solution containing the compound (Ib) and compound (IV) of prescribed concentrations. The treatment solutions were sprayed on stems and leaves so as to fully adhere to the leaf surfaces of the cucumber. After spraying, the plant was air-dried, and a PDA medium containing spores of cucumber Gray mold fungus was placed on the cucumber leaf surface. Thereafter, it was left under humid condition at 12° C., then, a control effect thereof was checked.
Further, wettable powders of the compound (Ia), compound (Ib), compound (III) and compound (IV) each were diluted with water to prescribed concentrations to prepare respective treatment solutions, which were subjected to a parallel test.
In checking of the control effect, the disease spot diameter was measured for 8 leaves of cucumber. A case of a disease spot diameter of 0 mm was evaluated as a controlling index of 0, a case of a disease spot diameter of 1 to 5 mm was evaluated as a controlling index of 1, a case of a disease spot diameter of 5 to 10 mm was evaluated as a controlling index of 2, a case of a disease spot diameter of 10 to 15 mm was evaluated as a controlling index of 3, a case of a disease spot diameter of 15 to 20 mm was evaluated as a controlling index of 4, and a case of a disease spot diameter of over 20 mm was evaluated as a controlling index of 5.
A compound (Ia), compound (Ib), compound (III) or compound (IV) (10 parts), a mixture (35 parts) of white carbon and polyoxyethylene alkyl ether sulfate ammonium salt (weight ratio 1:1) and water (55 parts) were mixed, and finely ground by a wet grinding method to obtain respective flowable formulations.

[2] = tested on: cucumber Gray mold fungus; experiment: Test Example 1: cucumber Gray mold control test, foliar spray on potted cucumber; type: in vivo; conditions: spray on cucumber stems and leaves, 6 days at 12° C. humid
Description: as §1, with “(Ib)” for “(Ib), compound (III)”, “(II)” for “(IV)”, “(II)” for “(III) of prescribed concentrations, a treatment solution containing the compound (Ib) and compound (III) of prescribed concentrations, a treatment solution containing the compound (Ia) and compound (IV)”, “left for 6 days at 12° C.” for “left”, “condition,” for “condition at 12° C.,”
Further, wettable powders of the compound (Ia), compound (Ib) and compound (II) each were diluted with water to prescribed concentrations to prepare respective treatment solutions, which were subjected to a parallel test.
In checking, evaluation indices described later were used. According to formula 1, the pathogenesis degree was calculated, and based on the pathogenesis degree, a controlling value (%) was calculated using formula 2.
A compound (Ia), compound (Ib) or compound (II) (10 parts), a mixture (35 parts) of white carbon and polyoxyethylene alkyl ether sulfate ammonium salt (weight ratio 1:1) and water (55 parts) were mixed, and finely ground by a wet grinding method to obtain respective flowable formulations.
• 0: disease spot diameter, 0 mm • 1: disease spot diameter, 1 to 5 mm • 2: disease spot diameter, 5 to 10 mm • 3: disease spot diameter, 10 to 15 mm • 4: disease spot diameter, 15 to 20 mm • 5: disease spot diameter, over 20 mm pathogenesis degree=Σ(evaluation index of checked leaf)×100/(5×number of checked leaves) Formula 1 controlling value (%)=100×(A−B)/A Formula 2 • A: pathogenesis degree of plant in non-treated district • B: pathogenesis degree of plant in treated district

[3] = active ingredient concentration 5 ppm
[4] = active ingredient concentration 10 ppm
[5] = active ingredient concentration 2.5 ppm
[6] = active ingredient concentration 20 ppm
[7] = active ingredient concentration 40 ppm

SMILES	sum of controlling indices [1, 3]	controlling value [2, 4]	sum of controlling indices [1, 5]	controlling value [2, 3]	controlling value [2, 6]	controlling value [2, 7]	sum of controlling indices [1, 4]	sum of controlling indices [1, 6]	sum of controlling indices [1, 7]	controlling value [2, 5]
CC#Cc1cc(C)nc(Nc2ccccc2)n1 [compound (III), 4-methyl-N-phenyl-6-(1-propynyl)-2-pyrimidinamine, reference compound]	10	–	–	–	–	–	–	–	–	–
Cc1cc(C)nc(Nc2ccccc2)n1 [compound (II), 4,6-dimethyl-N-phenyl-2-pyrimidinamine, reference compound]	–	30%	–	–	–	–	–	–	–	–
Cc1cc(C2CC2)nc(Nc2ccccc2)n1 [compound (IV), 4-cyclopropyl-6-methyl-N-phenyl-2-pyrimidinamine, reference compound]	9	–	24	–	–	–	–	–	–	–
CNC(=O)C(OC)c1ccccc1COc1cc(C)ccc1C (stereo not drawn) [compound (Ib)]	25	–	–	48%	60%	68%	26	24	24	–
CNC(=O)[C@H](OC)c1ccccc1COc1cc(C)ccc1C [compound (Ia)]	25	60%	27	–	68%	–	24	23	–	48%
